Measured values taken from patent publication US20250051301A1, “MUTANT IDH1 AND IDH2 INHIBITOR AND APPLICATION THEREOF” (Betta Pharmaceuticals Co., Ltd, priority 2022, published 2025).

Columns and labels:
IDH1^R132H = IDH1^R132H (Homo sapiens, UniProt O75874, R132H); assay: 2-HG assay in cells (U87 cell line stably transfected with IDH1-R132H); format: cell-based; conditions: 72 hours, numeric values, read-out: 2-HG in medium (IC50, nM) (IDH1^R132H)
Description: The compounds were detected for the inhibition of 2-HG production in the U87 cell line stably transfected with IDH1-R132H and the culture supernatant of TF-1 cells stably transfected with IDH2-R140Q. • (1) The cultured cells were collected by centrifugation, then suspended in a cell culture solution, counted, and seeded in a 96-well cell culture plate at 160 μL of cell suspension/well (20000 cells/well for U87-IDH1-R132H; 10000 cells/well for TF-1-IDH2-R140Q). • (2) A 96-well plate dilution was taken, and the compounds to be tested were diluted in a gradient manner in DMSO and a cell culture solution; and then 40 μL of the gradient-diluted compounds to be tested were added to the 96-well plate on which cells have been plated. […] Finally, the plate was cultured in a 37° C. incubator containing 5% CO2. • (3) After the compounds were incubated with the cells for 72 hours, the cell culture plate was taken out and centrifuged at 1500 rpm for 5 minutes, and then 100 μL of the medium supernatant was aspirated for 2-HG detection. • (4) 2-HG detection: the cell supernatant was diluted with purified water, 30 μL of the diluted sample was taken into a 1.5 ml centrifuge tube, and 200 μL of the internal standard solution was added. The mixture was mixed uniformly by vortex and centrifuged at 3200 rpm at 4° C. for 15 minutes. 100 μL of the supernatant solution was diluted with water at a 1:1 ratio and then detected by LC-MS. Analyte Peak Area was used to represent the 2-HG levels. • (5) Inhibition rate calculation, formula: % Inhibition=(1−Analyte Peak Area_sample/Analyte Peak Area_max)*100%, wherein Analyte Peak Area_sample represents the Analyte Peak Area of the sample to which the compound was added; Analyte Peak Area_max represents the average value of Analyte Peak Area of positive control wells (representing the absence of the compound). The curve fitting was performed using Graphpad Prism software to obtain IC50 values, and the test results were as shown in table 2.

[1] = Pharmacokinetic detection in dogs; format: in vivo; conditions: beagle dogs
Description: Adult beagle dogs (6-12 months of age) received a single dose of the compounds to be tested via intravenous administration (IV) or oral gavage administration (PO), respectively. In the IV single dose, 5% DMSO+5% Solutol+90% physiological saline was used as the excipient; the intravenous administration was carried out at a dose of 1 mg/kg (2 females and 2 males); and the venous blood collection time was 5 min, 15 min, 0.5 h, 1 h, 2 h, 4 h, 6 h, 8 h, 10 h and 24 h. In the PO single dose, 5% DMSO+5% Solutol+90% purified water was used as the excipient; the oral gavage administration was carried out at a dose of 5 mg/kg (2 females and 2 males); and the blood collection time was 15 min, 0.5 h, 1 h, 2 h, 4 h, 6 h, 8 h, 10 h and 24 h. Blood samples were collected in tubes containing EDTA anticoagulants and centrifuged at 4000 rpm at 4° C. for 10 min, and the supernatants were transferred to centrifuge tubes and stored at −20° C. For the detection, 30 μL of the plasma supernatant sample was taken, and 200 μL of an internal standard solution was added. The mixture was centrifuged at 3000 rpm for 10 minutes. Then, 100 μL of the supernatant solution was diluted with water at a 1:1 ratio and then injected with an injection volume of 5 μL. The concentration of the compounds to be tested in the plasma sample was analyzed by liquid chromatography-tandem mass spectrometry (LC-MS/MS). Plasma concentration-time data for individual animals were analyzed using Sciex Analyst software. The non-compartment model was introduced into the concentration analysis, and pharmacokinetic parameters (Cl_obs, Cmax and AUClast) of the compounds to be tested were calculated using WinNonlin (version 4.1; pHarsight) software.

[2] = both sexes, dog, plasma, PO, 5 mg/kg

Sequence of IDH1^R132H (O75874 whole entry R132H): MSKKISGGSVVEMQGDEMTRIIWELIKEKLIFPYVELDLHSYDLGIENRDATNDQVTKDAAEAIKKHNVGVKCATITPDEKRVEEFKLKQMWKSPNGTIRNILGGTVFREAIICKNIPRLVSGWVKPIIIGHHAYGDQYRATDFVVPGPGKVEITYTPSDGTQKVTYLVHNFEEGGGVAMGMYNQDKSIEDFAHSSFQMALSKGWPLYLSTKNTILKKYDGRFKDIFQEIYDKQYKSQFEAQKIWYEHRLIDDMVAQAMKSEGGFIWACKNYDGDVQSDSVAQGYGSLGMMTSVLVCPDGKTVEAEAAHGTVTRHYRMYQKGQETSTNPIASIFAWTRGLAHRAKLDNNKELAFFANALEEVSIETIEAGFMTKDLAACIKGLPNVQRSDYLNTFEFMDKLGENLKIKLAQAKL

**Q.** With C[C@@H](Nc1nc(N[C@H](C)C(F)(F)F)nc(-c2cc(F)c(N)c(Cl)n2)n1)C(F)(F)F [Example 5, 6-(5-amino-6-chloro-4-fluoropyridin-2-yl)-N^2,N^4-bis((R)-1,1,1-trifluoropropyl-2-yl)-1,3,5-triazine-2,4-diamine] as the molecule, how does the IC50 (IDH1^R132H) read?
**A.** Its IC50 is 0.5 nM.

**Q.** And the Cl_obs ([1]; IV, 1 mg/kg)?
**A.** The Cl_obs was 5.1 mL/min/kg.

**Q.** And the AUC(0-t) ([1]; both sexes, dog, plasma, IV, 1 mg/kg)?
**A.** The AUC(0-t) was 2630 ng·h/mL.

**Q.** And the AUC(0-t) [1, 2]?
**A.** The AUC(0-t) was 11700 ng·h/mL.

**Q.** What about the Cmax [1, 2] of the same molecule?
**A.** The Cmax was 1160 ng/mL.
